Results from patent US20060204502A1 (priority 2004, published 2006).

Experiments:
[1] = target: T1, rat A1 Adenosine receptor (Rattus norvegicus, UniProt P25099); assay: Rat A1 adenosine receptor binding, [3H]-DPCPX, rat brain membranes; settings: read-out: rA1 (Ki)
T1 construct: from tissue; host or cells: whole brain (minus brainstem, striatum and cerebellum) of male Wistar rats
T1 sequence (P25099 1-326): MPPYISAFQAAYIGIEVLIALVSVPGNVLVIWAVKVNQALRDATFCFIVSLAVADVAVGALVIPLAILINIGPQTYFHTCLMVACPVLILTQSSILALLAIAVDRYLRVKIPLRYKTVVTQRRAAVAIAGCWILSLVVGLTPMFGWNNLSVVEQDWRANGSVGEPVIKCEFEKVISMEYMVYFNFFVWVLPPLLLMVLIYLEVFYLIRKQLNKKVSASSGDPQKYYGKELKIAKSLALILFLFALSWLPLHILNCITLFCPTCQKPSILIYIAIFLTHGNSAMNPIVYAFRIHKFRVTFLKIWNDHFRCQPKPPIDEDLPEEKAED
Method: Membrane preparations: Male Wistar rats (200-250 g) can be decapitated and the whole brain (minug brainstem, striatum and cerebellum) dissected on ice. The brain tissues can be disrupted in a Polytron (setting 5) in 20 vols of 50 mM Tris HCl, pH 7.4. […] After 30 min incubation at 37° C., the membranes can be centrifuged and the pellets stored at −70° C. Striatal tissues can be homogenized with a Polytron in 25 vol of 50 mM Tris HCl buffer containing 10 mM MgCl2 pH 7.4. […] After 30 min incubation at 37° C., membranes can be centrifuged and the pellet stored at −70° C. […] Incubation times are typically 120 min at 25° C.
Radioligand binding assays may comprise the following: Binding of [^3H]-SCH 58261 (5-amino-7-(2-phenylethyl)-2-(2-furyl)-pyrazolo[4,3-e]-1,2,4-triazolo[1,5-c]pyrimidine) to rat striatal membranes (100 ug of protein/assay) can be performed according to methods described in Zocchi et al., 1996, J. Pharm. and Exper. […] In competition studies, at least 6-8 different concentrations of examined compounds should be used. […] Incubation time is typically 60 min at 25° C. Bound and free radioactivity can be separated by filtering the assay mixture through Whatman GF/B glass-fiber filters using a Brandel cell harvester (Gaithersburg, Md., USA). […] The filter bound radioactivity can be measured, for example, by liquid scintillation spectrometry. […]

[2] = system: Human Lung Carcinoma SKMES; assay: MTT growth inhibitory assay, SKMES; type: cell-based; settings: SKMES cells, A3 antagonist at 0.5 μg/ml
Method: (§1) Interpretation of the EF is dependent upon the concentrations of A3 receptor antagonist tested. For example, when using very low concentrations of A3 receptor antagonist, any EF above 1.0 is synergistic if the A3 receptor antagonist concentration is below the threshold of cell growth inhibition.
(§2) The cells are sub-cultured twice a week.
(§3) Vinblastine sulfate salt was obtained from Sigma Chemical Co., (V1377). Irinotecan was diluted with culture medium. All other agents were dissolved in 100% DMSO at appropriate concentrations. The DMSO stock solutions were diluted 100-fold with growth medium so that the final DMSO concentration was 1%.

[3] = system: Human Colon Carcinoma HT29; assay: MTT growth inhibitory assay, HT29; type: cell-based; settings: HT29 cells
Method: as §1, §2, §3

[4] = system: Human Pancreatic Cancer Panc-1; assay: MTT growth inhibitory assay, Panc-1; type: cell-based; settings: Panc-1 cells, A3 antagonist at 0.5 μg/ml
Method: as §1, §2, §3

Human Melanoma A375 = assay: MTT growth inhibitory assay, A375; settings: A375 cells
Method: An exemplary assay may comprise the following steps: Cells (1000-1500 cells/well) are seeded in a 96-well micro culture plate in a total volume of 100 μl/well. After overnight incubation in a humidified incubator at 37° C. with 5% CO2-95% air, chemotherapeutic drug solutions diluted with culture medium at various concentrations are added in the amount of 100 μl to each well. The plates are placed in a humidified incubator at 37° C. with 5% CO2-95% air for 7-10 days. The plates are then centrifuged briefly and 100 μl of the growth medium is removed. Cell cultures are incubated with 50 μl of MTT [3-(4,5-dimethylthiazol-2-yl)-2,5-diphenyl-tetrazolium bromide] reagent (1 mg/ml in Dulbecco's phosphate-buffered saline) for 4 hr at 37° C. The resultant purple formazan precipitate is solubilized with 200 μl of 0.04 N HCl in isopropanol. Absorbance is measured at a wavelength of 595 nm and at a reference wavelength of 655 nm using a Bio-Rad Model 3550 Microplate Reader. Preferably, all tests are run in duplicate for each dose level. […] The EZED50 computer program estimates the concentration of agent that inhibits cell growth by 50% as compared to the control cells. This is termed the IC50 and is determined by curve fitting test data using the following four logistic equation. [formula]
If testing concentrations are properly selected (i.e., no or little growth inhibition at low concentrations and complete inhibition at high concentrations), EZED50 program fits the data extremely well and estimates the IC50 value accurately. […] In these instances, the data could be re-analyzed by fixing the Amax value.
In this case, the IC50 could be estimated more accurately if both the Amax and Amin values are fixed. Although it may be feasible to estimate IC50 value by fixing Amax and/or Amax and Amin without repeating the experiment, the best way to determine the IC50 accurately is to decrease or increase the concentrations of the test agent and repeat the test.
Inhibitory assay testing is also used to determine enhanced therapeutic effects from combining A3 receptor antagonists with other tumor inhibiting agents. The inhibitory cell growth assays are run with and without selected concentrations of A3 receptor antagonists. An enhanced therapeutic effect is present when the IC50 of the tumor inhibiting agent is lower with the A3 receptor antagonist.
Quantitatively, the enhancement factor (EF) is calculated by dividing the IC50 value of the tumor inhibiting agent for a tumor cell line by the IC50 value of the agent with A3 receptor antagonist for the same cell line: [formula]
The cells are cultured in a T25 Falcon Tissue Culture flask in a humidified incubator at 37° C. with 5% CO2-95% air. The cells are sub-cultured twice a week.

[5] = target: T2, rat A2A Adenosine receptor (Rattus norvegicus, UniProt P30543); assay: Rat A2A adenosine receptor binding, [3H]-SCH 58261, rat striatal membranes; settings: read-out: rA2A (Ki)
T2 construct: from tissue; host or cells: rat striatum (male Wistar rats)

[6] = enhancement of paclitaxel IC50, A3 antagonist at 0.5 μg/ml

T2 sequence (P30543 whole entry): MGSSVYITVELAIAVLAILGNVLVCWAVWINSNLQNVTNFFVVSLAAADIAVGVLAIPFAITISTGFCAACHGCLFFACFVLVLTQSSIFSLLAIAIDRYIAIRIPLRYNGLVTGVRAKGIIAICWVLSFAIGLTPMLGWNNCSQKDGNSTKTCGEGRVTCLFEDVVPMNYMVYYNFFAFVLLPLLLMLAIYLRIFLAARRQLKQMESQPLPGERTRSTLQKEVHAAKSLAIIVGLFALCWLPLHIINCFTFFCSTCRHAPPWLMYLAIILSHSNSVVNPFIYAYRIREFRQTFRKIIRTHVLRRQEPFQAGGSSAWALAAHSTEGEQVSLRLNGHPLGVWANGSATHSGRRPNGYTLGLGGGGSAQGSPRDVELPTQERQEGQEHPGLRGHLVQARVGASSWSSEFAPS

CN(C)c1ccc(NC(=O)Nc2nc3nn(C)cc3c3nc(-c4ccco4)nn23)cc1 [IL-11, N-1-(4-dimethylamino-phenyl)-N′-5-[8-methyl-2-(2-furyl)-pyrazolo[4,3-e]1,2,4-triazolo[1,5-c]pyrimidine]-urea]
Ki [1]: > 10 µM
Enhancement Factor ([2]; enhancement of docetaxel IC50): 1.9
Enhancement Factor ([2]; enhancement of irinotecan HCL IC50): 1.9
Enhancement Factor ([2]; enhancement of paclitaxel IC50): 4.2
Enhancement Factor ([2]; enhancement of vinblastine IC50): 1.6
Enhancement Factor ([3]; enhancement of docetaxel IC50, A3 antagonist at 0.05 μg/ml): 6.4
Enhancement Factor ([3]; enhancement of doxorubicin IC50, A3 antagonist at 0.5 μg/ml): 1.2
Enhancement Factor ([3]; enhancement of irinotecan IC50, A3 antagonist at 0.5 μg/ml): 1.1
Enhancement Factor [3, 6]: 2.5
Enhancement Factor ([4]; enhancement of docetaxel IC50): 1.4
Enhancement Factor ([4]; enhancement of paclitaxel IC50): 1.8
Enhancement Factor (Human Melanoma A375; enhancement of docetaxel IC50, A3 antagonist at 0.5 μg/ml): 5.3
Enhancement Factor (Human Melanoma A375; enhancement of docetaxel IC50, A3 antagonist at 5 μg/ml): 6.5
Enhancement Factor (Human Melanoma A375; [6]): 3.1
Enhancement Factor (Human Melanoma A375; enhancement of paclitaxel IC50, A3 antagonist at 5 μg/ml): 9.6
Ki [5]: > 10 µM
